The record followed here is patent US9314458B2, “Topical use of ingenol-3-angelate or a salt thereof to treat skin cancer” (LEO Laboratories Limited, priority 2000, dated 2016).

Assay type in all cases: cell-based
For one test, the target named is T1, PKCγ (Homo sapiens, UniProt P05129).
T1 construct: host or cells: HeLa cells
In words: EGFP-PKC translocation in HeLa cells (PKCγ). As to conditions: one hour. The protocol:
(§1) Five EGFP-PKC isoforms (Clontech) were available for this experiment, enabling the screening of the three predominant PKC families (i.e. classical, novel and atypical PKCs). The members of the various PKC families are α, β, and γ (classical), θ (novel) and ζ (atypical).
(§2) HeLa cells were plated out in a 24-well plate containing coverslips and transfected with PKC isoforms fused to EGFP, using a commercially available effectine-transfection kit (QIAGEN, Pty. Ltd.). Cells were exposed to the transfection reagents for 16-24 hr. Subsequently, transfected cells were treated for one hour with TPA (100 ng/mL), bryostatin-1 (5 pg/mL), PEP003 (2.25 μg/mL; 5 μM) or PEP005 ([…]) 1.5 μM). Following treatment, cells were fixed on coverslips and mounted on glass slides. The slides were subsequently examined visually by fluorescence microscopy, photographed, and over 150 cells were counted/treatment/PKC isoform. Counted cells were classified according to the localisation of the PKC-EGFP fluorescence as either cytoplasmic or plasma membrane using ImagePro™ 4.1 (FIG. 5). […] The number of these cells was also counted. Results are presented as an average and standard deviation of percentages of cells (Table 1).

Test [1] has as its system Human peripheral blood mononuclear cells. In words: Phagocytic activity, nitroblue tetrazolium uptake. As to conditions: 100 ng/mL, 20 min; controls <2%. The protocol: Human peripheral blood mononuclear cells (PBMC) prepared by standard Ficoll separation comprise approximately 5% monocytes. PBMC were incubated with dihydroethidium, a reduced form of the dye which becomes fluorescent when oxidized by a respiratory burst, then treated in 10% FCS-RPMI 1640 at 37° C. for 15 min with crude E. peplus extract diluted 1/1000 or 100 ng/mL TPA and analyzed by flow cytometry using conventional methods (Handbook of Flow Cytometry Methods, p. 151). The mean channel numbers for fluorescence were 618 (controls) and 818 (E. peplus extract diluted 1/1000). […] Phagocytic activity was determined by a conventional method (Hudson and Hay, Practical Immunology, 3rd edition, p. 74). […] The average of three fields gave figures of <2% (controls), 10% (TPA) and 8.7% (E. peplus sap) cells stained blue.

In test [2] the test system is EBV in Burkitt's lymphoma cell lines (Mutul, BL74) and an LCL. Nature of the test: EBV activation (VCA western blot) in Burkitt's lymphoma cell lines and LCL. The protocol: To ensure that equal amounts of each sample were analyzed, the gels were stained with Coomassie blue and the loadings were adjusted to make them equal. […] Next the PEP003 and PEP004 were assayed on two Burkitt's lymphoma cell lines and an LCL. This time only concentrations of 10^−5 and 10^−7 were used.

The next test addresses T2, PKCθ (Homo sapiens, UniProt Q04759).
T2 construct: host or cells: HeLa cells
In words: EGFP-PKC translocation in HeLa cells (PKCθ). As to conditions: one hour, same concentrations. The protocol: as §1, §2

T2 sequence (Q04759 whole entry): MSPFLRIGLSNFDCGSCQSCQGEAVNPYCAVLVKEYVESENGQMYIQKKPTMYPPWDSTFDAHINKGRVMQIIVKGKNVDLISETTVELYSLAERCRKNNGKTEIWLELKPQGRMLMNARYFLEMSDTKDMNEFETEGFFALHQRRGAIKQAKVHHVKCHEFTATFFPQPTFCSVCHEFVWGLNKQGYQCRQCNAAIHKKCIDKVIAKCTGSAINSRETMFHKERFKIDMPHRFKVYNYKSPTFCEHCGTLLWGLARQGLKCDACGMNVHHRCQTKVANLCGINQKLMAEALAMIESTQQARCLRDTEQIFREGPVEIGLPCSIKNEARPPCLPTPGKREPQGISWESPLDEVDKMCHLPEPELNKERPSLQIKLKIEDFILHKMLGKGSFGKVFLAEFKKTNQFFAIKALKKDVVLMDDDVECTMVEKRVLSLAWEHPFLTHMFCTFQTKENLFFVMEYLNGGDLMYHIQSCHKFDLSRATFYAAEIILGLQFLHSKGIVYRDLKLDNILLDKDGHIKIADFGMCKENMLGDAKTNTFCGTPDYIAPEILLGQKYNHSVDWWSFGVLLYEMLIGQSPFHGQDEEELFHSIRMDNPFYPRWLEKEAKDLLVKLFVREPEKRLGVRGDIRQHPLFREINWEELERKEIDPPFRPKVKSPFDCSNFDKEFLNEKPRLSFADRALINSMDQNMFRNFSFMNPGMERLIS

Consider `CCCCCCCCCCCCCC(=O)O[C@@H]1[C@@H](C)[C@@]2(O)[C@@H](C=C(CO)C[C@]3(O)C(=O)C(C)=C[C@@H]23)C2C(C)(C)[C@@]21OC(C)=O` (single isomer, unassigned) [TPA], for which the “number of PKCγ transfected cells displaying Golgi-like fluorescence” value on PKCγ is “increase in the number of cells displaying Golgi-like fluorescence”. Moreover, the “translocation of PKCγ from cytoplasm to plasma membrane” value at PKCγ (TPA 100 ng/mL, bryostatin-1 5 pg/mL, PEP003 2.25 μg/mL (5 μM), PEP005 670 μg/mL (1.5 μM)) was “translocated from the cytoplasm to the plasma membrane”. Besides, the “cells stained blue (NBT)” value in test [1] came to 10%. For the same compound, in test [2], the “induction of VCA in Mutul cells” value was “did not”. On PKCθ, the “translocation of PKCθ” value is recorded as “translocated”.
